The series in a line: Dissociation constant by non-linear regression analysis. It is filed as physicochemical.
`CC(=O)N[C@@H]1[C@H](O[C@H]2C[C@H](C(=O)OC(C)(C)C)[C@@H](C(=O)OC(C)(C)C)C[C@H]2O[C@H](CC2CCCCC2)C(=O)O)O[C@@H](CO)[C@H](O)[C@@H]1O[C@@H]1O[C@@H](CO)[C@H](O)[C@H](O)[C@@H]1O`: the affinity, expressed as Kd, was 45 µM. With `CC(=O)N[C@@H]1[C@H](O[C@H]2C[C@H](C(=O)OC(C)(C)C)[C@@H](C(=O)OC(C)(C)C)C[C@H]2O[C@H](Cc2ccccc2)C(=O)O)O[C@@H](CO)[C@H](O)[C@@H]1O[C@@H]1O[C@@H](CO)[C@H](O)[C@H](O)[C@@H]1O`, binding was characterised by a dissociation constant (Kd) of 10 µM. For `CC(=O)N[C@@H]1[C@H](O[C@H]2C[C@H](C(=O)OC(C)(C)C)[C@@H](C(=O)OC(C)(C)C)C[C@H]2O[C@H](C)C(=O)O)O[C@@H](CO)[C@H](O)[C@@H]1O[C@@H]1O[C@@H](CO)[C@H](O)[C@H](O)[C@@H]1O` the value was 190 µM.

Source of the values: ChEMBL document CHEMBL1144982, “Ganglioside GM1 mimics: lipophilic substituents improve affinity for cholera toxin” (Bioorg Med Chem Lett, 2003).
